Results published in US20230340530A1, “Methods of Protecting RNA” (Pfizer Inc., priority 2020, published 2023).

Biological target: RNA samples (Chi18 or HCV IRES)
Experiment: Droplet Digital Polymerase Chain Reaction (ddPCR) assay of RNA protection
Type: biochemical
Settings: 50 mM Tris buffer pH 11.4, 16 hrs at 30° C. for Chi18 or 42° C. for HCV; table does not say which RNA; 600 µM to 0.018 µM compound, 2% DMSO; read-out: EC50 Values Obtained from the ddPCR Assay
Experimental: The ddPCR assays measured RNA integrity by converting intact RNA to cDNA by reverse transcription, then performing digital PCR in thousands of nanoliter-sized droplets for each sample. PCR was performed within each droplet, which allowed for more sensitive detection of subtle changes in RNA concentration compared to traditional PCR or qPCR. Additionally, primers/probes specific to the 5′ end of the RNA/cDNA transcript(s) were used to assess fragment integrity, i.e. degraded RNA had fewer 5′ positive droplets. The BioRad QX200 Droplet Digital PCR System was used for the ddPCR workflow.
RNA samples (Chi18 or HCV IRES) were diluted to 100 fg/µL in 50 mM Tris buffer pH 11.4. Boron compounds were tested in a dose-response format to determine EC50. A compound dilution plate that contained a 30 mM top concentration of compound in DMSO was serially (half-log) diluted 10 times. A quantity of 0.12 µL of this compound dilution plate was spotted into a 96-well PCR plate (Thermo). Sample RNAs were added (6 µL) and incubated with test compounds as described below. Final compound concentrations ranged from 600 µM to 0.018 µM in 2% DMSO.
For the degradation reaction, treated RNAs were incubated for 16 hrs at 30° C. for Chi18 samples or 42° C. for HCV samples. Upon completion of the degradation reaction, cDNA was made and ddPCR run for each sample (96 well plates). Positive 5′ droplet values were divided by the total accepted droplet values for each sample and a ratio value generated for each sample.
Data was imported into a database where percent (%) protection and compound EC50 were calculated and curated. […] EC50 was determined by using a four parameter logistic equation: Y=A+((B-A)/(1+(C/X)D)); where Y is percent protection, X is compound concentration, A and B are minimum and maximum asymptotes, respectively, C is EC50, and D is Hill slope.

Compound | EC50 [µM]
C[C@H]1c2ccc(NC(=O)CCC(=O)Nc3ccc4c(c3)B(O)OC4)c(O)c2C(=O)C2=C(O)[C@]3(O)C(=O)C(C(N)=O)=C(O)[C@@H](N(C)C)[C@@H]3[C@@H](O)[C@@H]21 [PF-06968256, N-1-[(5R,5aR,6S,6aR,7S,10aS)-9-carbamoyl-7-(dimethylamino)-1,6,8,10a,11-pentahydroxy-5-methyl-10,12-dioxo-5,5a,6,6a,7,10,10a,12-octahydrotetracen-2-yl]-N~4~-(1-hydroxy-1,3-dihydro-2,1-benzoxaborol-6-yl)butanediamide] | 75.7
C[C@H]1c2ccc(NC(=O)CNc3ccc4c(c3)B(O)OC4(C)C)c(O)c2C(=O)C2=C(O)[C@]3(O)C(=O)C(C(N)=O)=C(O)[C@@H](N(C)C)[C@@H]3[C@@H](O)[C@@H]21 [PF-06968306, (4S,4aR,5S,5aR,6R,12aS)-4-(dimethylamino)-3,5,10,12,12a-pentahydroxy-9-{[N-(1-hydroxy-3,3-dimethyl-1,3-dihydro-2,1-benzoxaborol-6-yl)glycyl]amino}-6-methyl-1,11-dioxo-1,4,4a,5,5a,6,11,12a-octahydrotet racene-2-carboxamide] | 234
C[C@H]1c2c(NC(=O)c3ccc4c(c3)B(O)OC4(C)C)ccc(O)c2C(=O)C2=C(O)[C@]3(O)C(=O)C(C(N)=O)=C(O)[C@@H](N(C)C)[C@@H]3[C@@H](O)[C@@H]21 [PF-06968370, N-[(6aS,10S,10aR,11S,11aR, 12R)-8-carbamoyl-10-(dimethylamino)-4,6,6a,9,11-pentahydroxy-12-methyl-5,7-dioxo-5,6a,7,10,10a,11,11a,12-octahydrotetracen-1-yl]-1-hydroxy-3,3-dimethyl-1,3-dihydro-2,1-benzox aborole-6-carboxamide] | 258

More lines, now with the values ahead:

EC50 [µM] | Compound
281 | C[C@H]1c2c(NC(=O)c3ccc4c(c3)B(O)OC4)ccc(O)c2C(=O)C2=C(O)[C@]3(O)C(=O)C(C(N)=O)=C(O)[C@@H](N(C)C)[C@@H]3[C@@H](O)[C@@H]21 [PF-06968384, N-[(6aS,10S,10aR,11S,11aR, 12R)-8-carbamoyl-10-(dimethylamino)-4,6,6a,9,11-pentahydroxy-12-methyl-5,7-dioxo-5,6a,7,10,10a,11,11a,12-octahydrotetracen-1-yl]-1-hydroxy-1,3-dihydro-2,1-benzoxaborole-6-car boxamide]
75.1 | C[C@H]1c2ccc(NCC(=O)Nc3ccc4c(c3)B(O)OC4)c(O)c2C(=O)C2=C(O)[C@]3(O)C(=O)C(C(N)=O)=C(O)[C@@H](N(C)C)[C@@H]3[C@@H](O)[C@@H]21 [PF-06968419, (4S,4aR,5S,5aR,6R,12aS)-4-(dimethylamino)-3,5,10,12,12a-pentahydroxy-9-({2-[(1-hydroxy-1,3-dihydro-2,1-benzoxaborol-6-yl)amino]-2-oxoethyl}amino)-6-methyl-1,11-dioxo-1,4,4a,5,5a,6,11,12a-octahydrotetr acene-2-carboxamide]
126 | C[C@H]1c2ccc(NCCC(=O)Nc3cc4c5c(c3)OCCOB5OC4)c(O)c2C(=O)C2=C(O)[C@]3(O)C(=O)C(C(N)=O)=C(O)[C@@H](N(C)C)[C@@H]3[C@@H](O)[C@@H]21 [PF-06968542, (4S,4aR,5S,5aR,6R,12aS)-9-({3-[(2,3-dihydro-7H-[1,2]oxaborolo[4,3,2-jk][2,5,1]benzodioxaborepin-9-yl)amino]-3-oxopropyl}amino)-4-(dimethylamino)-3,5,10,12,12a-pentahydroxy-6-methyl-1,11-dioxo-1,4,4a,5,5a,6,11,12a-octahydrotetracene-2-carboxamide]
99.1 | C[C@H]1c2ccc(NCCC(=O)Nc3ccc4c(c3)OCCOB4O)c(O)c2C(=O)C2=C(O)[C@]3(O)C(=O)C(C(N)=O)=C(O)[C@@H](N(C)C)[C@@H]3[C@@H](O)[C@@H]21 [PF-06968559, (4S,4aR,5S,5aR,6R,12aS)-4-(dimethylamino)-3,5,10,12,12a-pentahydroxy-9-({3-[(1-hydroxy-3,4-dihydro-1H-2,5,1-benzodioxaborepin-7-yl)amino]-3-oxopropyl}amino)-8-methyl-1,11-dioxo-1,4,4a,5,5a,6,11,12a-oc tahydrotetracene-2-carboxamide]
